Assay results reported in PMC6130310 (Frontiers in Molecular Neuroscience, 2018).
Values belong to the compound of their own block, whether it stands above or below them.

Columns and labels:
Test in all cases: two-electrode voltage clamp, Xenopus oocytes
zGlyRα3/ßb = biological target: T1, zGlyRα3/ßb (Danio rerio, UniProt A0A8M1PA31+Q6DC22); assay type: cell-based
T1 construct: gene glra3; full-length cDNAs in pCS2+, cRNAs co-injected 1:1 in Xenopus laevis oocytes; heteropentamer
T1 sequence (A0A8M1PA31 28-450): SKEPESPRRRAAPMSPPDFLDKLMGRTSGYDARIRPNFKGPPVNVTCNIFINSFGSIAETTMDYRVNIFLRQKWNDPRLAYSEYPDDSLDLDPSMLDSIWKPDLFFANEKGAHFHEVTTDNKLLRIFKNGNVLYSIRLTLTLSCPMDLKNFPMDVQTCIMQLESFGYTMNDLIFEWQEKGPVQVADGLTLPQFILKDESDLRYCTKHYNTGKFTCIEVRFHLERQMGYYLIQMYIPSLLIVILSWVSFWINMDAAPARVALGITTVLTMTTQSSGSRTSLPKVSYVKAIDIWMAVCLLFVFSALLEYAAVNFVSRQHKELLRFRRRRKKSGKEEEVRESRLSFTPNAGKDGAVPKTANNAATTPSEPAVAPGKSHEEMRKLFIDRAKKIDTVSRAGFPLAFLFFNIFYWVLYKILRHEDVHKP
T1 sequence (Q6DC22 23-494): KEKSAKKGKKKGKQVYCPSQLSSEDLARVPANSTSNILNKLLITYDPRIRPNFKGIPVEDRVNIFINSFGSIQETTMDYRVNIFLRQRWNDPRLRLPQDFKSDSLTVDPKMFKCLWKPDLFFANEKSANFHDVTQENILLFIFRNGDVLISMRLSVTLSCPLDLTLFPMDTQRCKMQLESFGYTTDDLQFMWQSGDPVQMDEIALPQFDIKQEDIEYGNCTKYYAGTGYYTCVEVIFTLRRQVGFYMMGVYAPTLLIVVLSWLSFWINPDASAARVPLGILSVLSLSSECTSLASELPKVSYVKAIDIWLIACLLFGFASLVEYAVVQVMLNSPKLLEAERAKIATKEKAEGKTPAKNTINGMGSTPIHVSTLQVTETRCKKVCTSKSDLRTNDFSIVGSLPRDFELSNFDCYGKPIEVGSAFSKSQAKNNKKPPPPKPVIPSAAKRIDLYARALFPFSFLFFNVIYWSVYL
Text: two-electrode voltage clamp, Xenopus oocytes on zGlyRα3/ßb

zGlyRα1/ßa = system: T2, zGlyRα1/ßa; assay type: cell-based, Danio rerio; settings: -50 mV, pH 7.5, heteromers alpha:beta cRNA 1:1
T2 construct: gene glra1; full-length cDNAs in pCS2+, cRNAs co-injected 1:1 in Xenopus laevis oocytes; heteropentamer
Text: two-electrode voltage clamp, Xenopus oocytes on zGlyRα1/ßa

zGlyRα2 homomer = biological target: T3, zGlyRα2 homomer (Danio rerio, UniProt F1R8P4); assay type: cell-based
T3 construct: gene glra2; full-length cDNA in pCS2+, Kozak added; cRNA in Xenopus laevis oocytes; homopentamer; not the earlier 'zGlyRα2' (now α4a)
T3 sequence (F1R8P4 28-449): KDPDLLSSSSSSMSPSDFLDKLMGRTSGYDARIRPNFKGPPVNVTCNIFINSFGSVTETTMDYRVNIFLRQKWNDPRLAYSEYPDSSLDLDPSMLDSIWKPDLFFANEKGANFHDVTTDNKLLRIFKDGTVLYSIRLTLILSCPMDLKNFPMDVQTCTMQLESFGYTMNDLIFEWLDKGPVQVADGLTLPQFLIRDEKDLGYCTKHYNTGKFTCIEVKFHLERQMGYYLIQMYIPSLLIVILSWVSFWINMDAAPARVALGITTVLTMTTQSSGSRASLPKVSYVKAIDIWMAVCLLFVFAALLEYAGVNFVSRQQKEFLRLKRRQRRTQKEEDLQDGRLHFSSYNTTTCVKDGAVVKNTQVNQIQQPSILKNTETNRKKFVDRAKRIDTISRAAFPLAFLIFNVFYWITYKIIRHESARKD
Text: two-electrode voltage clamp, Xenopus oocytes on zGlyRα2 homomer

zGlyRα4b homomer = biological target: T4, zGlyRα4b homomer (Danio rerio, UniProt A0A8M1P2L1); assay type: cell-based
T4 construct: gene glra4b; full-length cDNA in pCS2+, Kozak added; cRNA in Xenopus laevis oocytes; homopentamer
T4 sequence (A0A8M1P2L1 25-492): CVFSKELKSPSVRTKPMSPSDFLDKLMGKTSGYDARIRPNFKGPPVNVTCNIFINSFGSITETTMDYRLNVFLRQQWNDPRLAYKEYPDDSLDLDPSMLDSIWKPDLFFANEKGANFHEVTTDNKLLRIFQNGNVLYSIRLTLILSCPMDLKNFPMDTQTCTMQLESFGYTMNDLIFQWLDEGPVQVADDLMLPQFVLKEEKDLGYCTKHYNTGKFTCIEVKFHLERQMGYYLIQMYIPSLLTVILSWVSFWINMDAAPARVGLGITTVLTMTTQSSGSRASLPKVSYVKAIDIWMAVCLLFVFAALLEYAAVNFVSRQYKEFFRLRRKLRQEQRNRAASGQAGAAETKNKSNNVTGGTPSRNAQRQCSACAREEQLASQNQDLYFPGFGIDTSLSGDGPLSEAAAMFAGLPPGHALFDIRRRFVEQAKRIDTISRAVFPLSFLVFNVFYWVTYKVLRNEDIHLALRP
Text: two-electrode voltage clamp, Xenopus oocytes on zGlyRα4b homomer

zGlyRα4a homomer = biological target: T5, zGlyRα4a homomer (Danio rerio, UniProt F1RDZ6); assay type: cell-based
T5 construct: gene glra4a; full-length cDNA in pCS2+, Kozak added; cRNA in Xenopus laevis oocytes; homopentamer
T5 sequence (F1RDZ6 28-457): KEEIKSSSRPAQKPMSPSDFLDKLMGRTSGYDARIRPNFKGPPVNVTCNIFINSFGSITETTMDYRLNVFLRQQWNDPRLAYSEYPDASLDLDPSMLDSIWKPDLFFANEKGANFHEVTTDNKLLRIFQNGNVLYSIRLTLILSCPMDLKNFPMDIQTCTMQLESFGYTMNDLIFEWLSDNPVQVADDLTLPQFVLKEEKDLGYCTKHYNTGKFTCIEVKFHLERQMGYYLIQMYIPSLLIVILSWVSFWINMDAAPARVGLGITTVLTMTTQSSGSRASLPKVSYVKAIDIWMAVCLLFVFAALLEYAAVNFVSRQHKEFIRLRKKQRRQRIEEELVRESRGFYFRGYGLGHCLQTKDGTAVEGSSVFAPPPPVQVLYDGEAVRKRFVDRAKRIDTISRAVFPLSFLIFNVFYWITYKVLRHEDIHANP
Text: two-electrode voltage clamp, Xenopus oocytes on zGlyRα4a homomer

zGlyRα4a/ßb = biological target: T6, zGlyRα4a/ßb (Danio rerio, UniProt F1RDZ6+Q6DC22); assay type: cell-based
T6 construct: gene glra4a; full-length cDNAs in pCS2+, cRNAs co-injected 1:1 in Xenopus laevis oocytes; heteropentamer
T6 sequence (F1RDZ6 28-457): T5 sequence (F1RDZ6 28-457)
T6 sequence (Q6DC22 23-494): T1 sequence (Q6DC22 23-494)
Text: two-electrode voltage clamp, Xenopus oocytes on zGlyRα4a/ßb

zGlyRα1 homomer = biological target: T7, zGlyRα1 homomer (Danio rerio, UniProt O93430); assay type: cell-based
T7 construct: gene glra1; full-length cDNA in pCS2+, Kozak added; cRNA in Xenopus laevis oocytes; homopentamer
T7 sequence (O93430 25-444): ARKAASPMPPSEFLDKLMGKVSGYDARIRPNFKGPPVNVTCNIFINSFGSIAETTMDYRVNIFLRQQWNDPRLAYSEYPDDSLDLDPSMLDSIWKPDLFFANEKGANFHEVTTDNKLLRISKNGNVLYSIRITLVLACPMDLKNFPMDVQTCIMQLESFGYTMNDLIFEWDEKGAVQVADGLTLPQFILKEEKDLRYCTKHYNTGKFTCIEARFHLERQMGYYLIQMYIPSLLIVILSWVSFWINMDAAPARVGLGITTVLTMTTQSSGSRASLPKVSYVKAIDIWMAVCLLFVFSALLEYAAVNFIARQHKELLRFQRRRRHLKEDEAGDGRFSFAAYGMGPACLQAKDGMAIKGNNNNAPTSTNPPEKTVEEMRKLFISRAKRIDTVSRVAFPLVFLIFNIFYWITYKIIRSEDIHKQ
Text: two-electrode voltage clamp, Xenopus oocytes on zGlyRα1 homomer

zGlyRα4b/ßa = biological target: T8, zGlyRα4b/ßa (Danio rerio, UniProt A0A8M1P2L1+A0ACM8PZL4); assay type: cell-based
T8 construct: gene glra4b; full-length cDNAs in pCS2+, cRNAs co-injected 1:1 in Xenopus laevis oocytes; heteropentamer
Text: two-electrode voltage clamp, Xenopus oocytes on zGlyRα4b/ßa

zGlyRα1/ßb = system: T9, zGlyRα1/ßb; assay type: cell-based, Danio rerio; settings: -50 mV, pH 7.5, heteromers alpha:beta cRNA 1:1
T9 construct: gene glra1; full-length cDNAs in pCS2+, cRNAs co-injected 1:1 in Xenopus laevis oocytes; heteropentamer
Text: two-electrode voltage clamp, Xenopus oocytes on zGlyRα1/ßb

zGlyRα4b/ßb = biological target: T10, zGlyRα4b/ßb (Danio rerio, UniProt A0A8M1P2L1+Q6DC22); assay type: cell-based
T10 construct: gene glra4b; full-length cDNAs in pCS2+, cRNAs co-injected 1:1 in Xenopus laevis oocytes; heteropentamer
T10 sequence (A0A8M1P2L1 25-492): T4 sequence (A0A8M1P2L1 25-492)
T10 sequence (Q6DC22 23-494): T1 sequence (Q6DC22 23-494)
Text: two-electrode voltage clamp, Xenopus oocytes on zGlyRα4b/ßb

zGlyRα3 homomer = biological target: T11, zGlyRα3 homomer (Danio rerio, UniProt A0A8M1PA31); assay type: cell-based
T11 construct: gene glra3; full-length cDNA in pCS2+, Kozak added; cRNA in Xenopus laevis oocytes; homopentamer
T11 sequence (A0A8M1PA31 28-450): T1 sequence (A0A8M1PA31 28-450)
Text: two-electrode voltage clamp, Xenopus oocytes on zGlyRα3 homomer

zGlyRα2/ßa = biological target: T12, zGlyRα2/ßa (Danio rerio, UniProt A0ACM8PZL4+F1R8P4); assay type: cell-based
T12 construct: gene glra2; full-length cDNAs in pCS2+, cRNAs co-injected 1:1 in Xenopus laevis oocytes; heteropentamer
Text: two-electrode voltage clamp, Xenopus oocytes on zGlyRα2/ßa

zGlyRα3/ßa = biological target: T13, zGlyRα3/ßa (Danio rerio, UniProt A0A8M1PA31+A0ACM8PZL4); assay type: cell-based
T13 construct: gene glra3; full-length cDNAs in pCS2+, cRNAs co-injected 1:1 in Xenopus laevis oocytes; heteropentamer
Text: two-electrode voltage clamp, Xenopus oocytes on zGlyRα3/ßa

zGlyRα4a/ßa = biological target: T14, zGlyRα4a/ßa (Danio rerio, UniProt A0ACM8PZL4+F1RDZ6); assay type: cell-based
T14 construct: gene glra4a; full-length cDNAs in pCS2+, cRNAs co-injected 1:1 in Xenopus laevis oocytes; heteropentamer
Text: two-electrode voltage clamp, Xenopus oocytes on zGlyRα4a/ßa

zGlyRα2/ßb = biological target: T15, zGlyRα2/ßb (Danio rerio, UniProt F1R8P4+Q6DC22); assay type: cell-based
T15 construct: gene glra2; full-length cDNAs in pCS2+, cRNAs co-injected 1:1 in Xenopus laevis oocytes; heteropentamer
T15 sequence (F1R8P4 28-449): T3 sequence (F1R8P4 28-449)
T15 sequence (Q6DC22 23-494): T1 sequence (Q6DC22 23-494)
Text: two-electrode voltage clamp, Xenopus oocytes on zGlyRα2/ßb

[1] = read-out: Glycine / EC50, agonist
[2] = read-out: Strychnine / IC50, competitive antagonist, block of current evoked by 200 μM glycine

T13 sequence (A0ACM8PZL4 23-498, one chain of several): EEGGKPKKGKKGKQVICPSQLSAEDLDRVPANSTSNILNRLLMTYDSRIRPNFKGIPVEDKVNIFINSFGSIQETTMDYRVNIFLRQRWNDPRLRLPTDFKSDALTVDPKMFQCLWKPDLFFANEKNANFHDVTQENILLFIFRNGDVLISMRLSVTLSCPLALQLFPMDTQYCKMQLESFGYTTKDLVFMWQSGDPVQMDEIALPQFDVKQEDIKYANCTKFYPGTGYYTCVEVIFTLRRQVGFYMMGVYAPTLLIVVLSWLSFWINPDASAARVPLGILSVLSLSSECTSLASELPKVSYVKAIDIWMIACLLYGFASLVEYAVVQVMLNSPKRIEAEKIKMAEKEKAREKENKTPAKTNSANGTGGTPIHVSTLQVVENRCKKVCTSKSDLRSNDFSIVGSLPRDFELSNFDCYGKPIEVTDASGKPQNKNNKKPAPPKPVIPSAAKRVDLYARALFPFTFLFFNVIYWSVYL
T14 sequence (A0ACM8PZL4 23-498, one chain of several): as above
T12 sequence (A0ACM8PZL4 23-498, one chain of several): as above
T8 sequence (A0ACM8PZL4 23-498, one chain of several): as above

- EC50 (zGlyRα3/ßb): 260 ± 20 µM
- EC50 (zGlyRα1/ßa; [1]): 186 ± 10 µM
- EC50 (zGlyRα2 homomer): 138 ± 10 µM
- EC50 (zGlyRα4b homomer): 134 ± 15 µM
- EC50 (zGlyRα4a homomer): 200 ± 16 µM
- EC50 (zGlyRα4a/ßb): 404 ± 24 µM
- EC50 (zGlyRα1 homomer): 102 ± 5.8 µM
- EC50 (zGlyRα4b/ßa): 236 ± 17 µM
- EC50 (zGlyRα1/ßb; [1]): 194 ± 18 µM
- EC50 (zGlyRα4b/ßb): 221 ± 15 µM
- EC50 (zGlyRα3 homomer): 125 ± 7.9 µM
- EC50 (zGlyRα2/ßa): 307 ± 30 µM
- EC50 (zGlyRα3/ßa): 521 ± 52 µM
- EC50 (zGlyRα4a/ßa): 458 ± 82 µM
- EC50 (zGlyRα2/ßb): 343 ± 64 µM
SMILES: NCC(=O)O [glycine]

SMILES: O=C1C[C@@H]2OCC=C3CN4CC[C@]56c7ccccc7N1[C@H]5[C@H]2[C@H]3C[C@H]46 [strychnine]
- IC50 (zGlyRα3/ßb): 0.041 ± 0.0081 µM
- IC50 (zGlyRα1/ßa; [2]): 0.012 ± 0.004 µM
- IC50 (zGlyRα2 homomer): 0.212 ± 0.037 µM
- IC50 (zGlyRα4b homomer): 0.052 ± 0.011 µM
- IC50 (zGlyRα4a homomer): 0.055 ± 0.012 µM
- IC50 (zGlyRα4a/ßb): 0.018 ± 0.0026 µM
- IC50 (zGlyRα4b/ßa): 0.081 ± 0.016 µM
- IC50 (zGlyRα1/ßb; [2]): 0.074 ± 0.017 µM
- IC50 (zGlyRα4b/ßb): 0.021 ± 0.0031 µM
- IC50 (zGlyRα3 homomer): 0.021 ± 0.008 µM
- IC50 (zGlyRα2/ßa): 0.292 ± 0.043 µM
- IC50 (zGlyRα3/ßa): 0.083 ± 0.016 µM
- IC50 (zGlyRα4a/ßa): 0.043 ± 0.022 µM
- IC50 (zGlyRα2/ßb): 0.121 ± 0.016 µM
